Several values for one entry are separate records, joined by “and”; a condition that tells them apart may be missing. Identical values can stand only once.
Columns and labels:
[1] = target: ATM (Homo sapiens, UniProt Q13315); experiment: SelectScreen Profiling IC50; format: biochemical
Procedure: (§1) The in vitro kinase selectivity of NU5455 was determined using the SelectScreen Broad Assay Panel (Thermo Fisher Scientific) involving activity and binding assays (Supplemental Table 1). […] Class IA PI3Ks were measured using the p85α subunit.
(§2) PI3K Kinase NU5455 IC (nM) Fold selectivity
(§3) Supplemental Table 2. NU5455 potency and selectivity across the PI3K kinase family.
(§4) µM NU5455 for DNA-PK versus other PIKK and PI3K family members was assessed by SelectScreen Profiling (Life Technologies). The
(§5) ATP concentration was the Kmapp except for * where the ATP concentration was 10 μM (mean ± SEM, n=4-7).

[2] = target: ATR (Homo sapiens, UniProt Q13535); experiment: SelectScreen Profiling IC50; format: biochemical
ATR, sequence (Q13535 whole entry): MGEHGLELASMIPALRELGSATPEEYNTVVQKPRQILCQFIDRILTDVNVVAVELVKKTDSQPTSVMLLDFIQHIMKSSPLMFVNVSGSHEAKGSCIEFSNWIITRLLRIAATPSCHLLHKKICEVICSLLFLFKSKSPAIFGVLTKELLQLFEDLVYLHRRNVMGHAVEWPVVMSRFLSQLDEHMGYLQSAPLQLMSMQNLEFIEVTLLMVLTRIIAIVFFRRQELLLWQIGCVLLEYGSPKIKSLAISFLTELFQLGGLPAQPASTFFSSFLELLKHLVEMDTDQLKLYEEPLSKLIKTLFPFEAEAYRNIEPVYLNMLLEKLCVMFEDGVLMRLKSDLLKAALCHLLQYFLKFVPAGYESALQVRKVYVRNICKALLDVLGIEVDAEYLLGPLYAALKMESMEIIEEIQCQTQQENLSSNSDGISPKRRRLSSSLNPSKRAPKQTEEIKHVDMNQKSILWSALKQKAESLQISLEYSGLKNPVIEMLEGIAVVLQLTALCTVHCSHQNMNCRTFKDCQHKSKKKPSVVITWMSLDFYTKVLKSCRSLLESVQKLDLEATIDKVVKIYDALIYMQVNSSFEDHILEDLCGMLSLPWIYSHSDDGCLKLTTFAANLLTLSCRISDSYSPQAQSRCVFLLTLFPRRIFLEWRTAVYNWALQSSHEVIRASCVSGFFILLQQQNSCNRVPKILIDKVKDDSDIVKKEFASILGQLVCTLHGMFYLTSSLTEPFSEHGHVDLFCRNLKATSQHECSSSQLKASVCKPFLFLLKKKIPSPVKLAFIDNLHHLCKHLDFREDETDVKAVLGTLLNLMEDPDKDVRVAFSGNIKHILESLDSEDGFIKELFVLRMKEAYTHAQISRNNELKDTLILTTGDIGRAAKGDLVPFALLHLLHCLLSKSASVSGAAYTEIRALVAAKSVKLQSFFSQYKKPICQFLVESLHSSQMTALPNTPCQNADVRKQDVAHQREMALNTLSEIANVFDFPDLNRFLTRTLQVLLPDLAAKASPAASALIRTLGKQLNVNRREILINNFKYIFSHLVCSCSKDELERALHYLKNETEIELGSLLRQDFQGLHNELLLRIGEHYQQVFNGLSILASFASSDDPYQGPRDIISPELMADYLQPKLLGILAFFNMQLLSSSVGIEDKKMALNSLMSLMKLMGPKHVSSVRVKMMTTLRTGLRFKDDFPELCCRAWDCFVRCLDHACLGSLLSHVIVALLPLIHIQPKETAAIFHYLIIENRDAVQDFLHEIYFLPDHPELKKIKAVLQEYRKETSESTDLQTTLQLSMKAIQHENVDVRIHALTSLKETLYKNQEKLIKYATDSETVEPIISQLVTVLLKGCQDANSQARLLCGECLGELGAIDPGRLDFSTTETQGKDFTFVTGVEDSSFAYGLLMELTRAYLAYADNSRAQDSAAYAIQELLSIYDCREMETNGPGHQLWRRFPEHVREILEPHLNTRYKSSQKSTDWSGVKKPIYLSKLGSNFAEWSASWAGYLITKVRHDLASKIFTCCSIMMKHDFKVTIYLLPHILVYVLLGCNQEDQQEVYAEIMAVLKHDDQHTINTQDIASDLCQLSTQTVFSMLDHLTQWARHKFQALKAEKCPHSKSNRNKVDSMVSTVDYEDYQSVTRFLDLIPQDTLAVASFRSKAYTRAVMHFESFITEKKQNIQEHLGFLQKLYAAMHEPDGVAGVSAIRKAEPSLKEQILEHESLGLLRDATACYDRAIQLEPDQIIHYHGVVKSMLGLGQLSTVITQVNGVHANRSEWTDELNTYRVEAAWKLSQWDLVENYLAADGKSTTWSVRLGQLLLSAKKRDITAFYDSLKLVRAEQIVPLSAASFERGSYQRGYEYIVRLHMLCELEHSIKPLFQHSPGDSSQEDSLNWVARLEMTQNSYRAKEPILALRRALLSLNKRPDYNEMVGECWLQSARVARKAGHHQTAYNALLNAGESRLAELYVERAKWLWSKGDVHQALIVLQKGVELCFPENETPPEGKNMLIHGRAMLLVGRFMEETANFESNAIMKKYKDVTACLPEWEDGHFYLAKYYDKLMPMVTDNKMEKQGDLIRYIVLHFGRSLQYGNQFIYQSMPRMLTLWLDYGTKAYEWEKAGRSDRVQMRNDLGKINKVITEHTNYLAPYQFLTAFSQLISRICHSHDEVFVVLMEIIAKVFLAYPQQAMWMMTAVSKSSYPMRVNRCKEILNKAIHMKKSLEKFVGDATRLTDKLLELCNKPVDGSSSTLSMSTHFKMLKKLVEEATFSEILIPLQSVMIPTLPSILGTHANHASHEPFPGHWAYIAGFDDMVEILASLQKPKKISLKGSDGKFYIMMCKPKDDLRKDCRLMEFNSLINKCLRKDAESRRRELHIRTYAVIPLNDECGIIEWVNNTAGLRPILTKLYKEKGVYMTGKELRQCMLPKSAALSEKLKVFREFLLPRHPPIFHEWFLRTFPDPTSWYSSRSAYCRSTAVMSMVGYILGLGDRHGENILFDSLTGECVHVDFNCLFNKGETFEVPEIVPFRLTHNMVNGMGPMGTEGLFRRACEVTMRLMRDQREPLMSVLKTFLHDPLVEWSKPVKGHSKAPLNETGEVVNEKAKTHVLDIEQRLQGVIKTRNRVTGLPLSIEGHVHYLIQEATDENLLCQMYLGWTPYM
ATR, sequence (Q8WXE1 whole entry partner): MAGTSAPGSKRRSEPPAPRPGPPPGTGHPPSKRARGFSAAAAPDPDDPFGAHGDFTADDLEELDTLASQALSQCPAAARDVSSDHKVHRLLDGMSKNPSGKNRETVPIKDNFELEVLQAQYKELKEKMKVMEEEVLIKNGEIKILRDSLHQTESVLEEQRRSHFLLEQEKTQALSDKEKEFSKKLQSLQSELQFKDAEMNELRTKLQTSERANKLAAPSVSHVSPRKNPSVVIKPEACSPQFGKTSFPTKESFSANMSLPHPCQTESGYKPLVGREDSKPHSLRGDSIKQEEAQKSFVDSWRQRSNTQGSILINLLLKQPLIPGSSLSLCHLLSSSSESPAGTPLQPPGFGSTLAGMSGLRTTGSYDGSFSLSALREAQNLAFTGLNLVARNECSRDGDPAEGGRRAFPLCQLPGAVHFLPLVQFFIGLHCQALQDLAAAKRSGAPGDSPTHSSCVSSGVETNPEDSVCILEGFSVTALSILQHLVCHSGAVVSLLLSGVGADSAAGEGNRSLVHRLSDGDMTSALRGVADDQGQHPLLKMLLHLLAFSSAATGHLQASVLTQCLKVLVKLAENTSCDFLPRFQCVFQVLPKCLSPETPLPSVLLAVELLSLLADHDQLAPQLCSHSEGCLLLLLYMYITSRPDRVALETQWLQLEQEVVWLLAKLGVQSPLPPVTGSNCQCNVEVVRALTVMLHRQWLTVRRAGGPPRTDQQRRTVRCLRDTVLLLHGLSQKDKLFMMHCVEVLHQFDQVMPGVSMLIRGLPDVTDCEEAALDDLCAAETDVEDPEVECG
Procedure: as §1, §2, §3, §4, §5

[3] = target: DNA-PK (Homo sapiens, UniProt P78527); experiment: SelectScreen Profiling IC50; format: biochemical; settings: cell-free; ATP Km app; mean ± SEM, n=4-7; read-out: NU5455 IC50
Procedure: as §1, §2, §3, §4, §5

[4] = target: PI3K-C2α (Homo sapiens, UniProt O00443); experiment: SelectScreen Profiling IC50; format: biochemical
PI3K-C2α, sequence (O00443 whole entry): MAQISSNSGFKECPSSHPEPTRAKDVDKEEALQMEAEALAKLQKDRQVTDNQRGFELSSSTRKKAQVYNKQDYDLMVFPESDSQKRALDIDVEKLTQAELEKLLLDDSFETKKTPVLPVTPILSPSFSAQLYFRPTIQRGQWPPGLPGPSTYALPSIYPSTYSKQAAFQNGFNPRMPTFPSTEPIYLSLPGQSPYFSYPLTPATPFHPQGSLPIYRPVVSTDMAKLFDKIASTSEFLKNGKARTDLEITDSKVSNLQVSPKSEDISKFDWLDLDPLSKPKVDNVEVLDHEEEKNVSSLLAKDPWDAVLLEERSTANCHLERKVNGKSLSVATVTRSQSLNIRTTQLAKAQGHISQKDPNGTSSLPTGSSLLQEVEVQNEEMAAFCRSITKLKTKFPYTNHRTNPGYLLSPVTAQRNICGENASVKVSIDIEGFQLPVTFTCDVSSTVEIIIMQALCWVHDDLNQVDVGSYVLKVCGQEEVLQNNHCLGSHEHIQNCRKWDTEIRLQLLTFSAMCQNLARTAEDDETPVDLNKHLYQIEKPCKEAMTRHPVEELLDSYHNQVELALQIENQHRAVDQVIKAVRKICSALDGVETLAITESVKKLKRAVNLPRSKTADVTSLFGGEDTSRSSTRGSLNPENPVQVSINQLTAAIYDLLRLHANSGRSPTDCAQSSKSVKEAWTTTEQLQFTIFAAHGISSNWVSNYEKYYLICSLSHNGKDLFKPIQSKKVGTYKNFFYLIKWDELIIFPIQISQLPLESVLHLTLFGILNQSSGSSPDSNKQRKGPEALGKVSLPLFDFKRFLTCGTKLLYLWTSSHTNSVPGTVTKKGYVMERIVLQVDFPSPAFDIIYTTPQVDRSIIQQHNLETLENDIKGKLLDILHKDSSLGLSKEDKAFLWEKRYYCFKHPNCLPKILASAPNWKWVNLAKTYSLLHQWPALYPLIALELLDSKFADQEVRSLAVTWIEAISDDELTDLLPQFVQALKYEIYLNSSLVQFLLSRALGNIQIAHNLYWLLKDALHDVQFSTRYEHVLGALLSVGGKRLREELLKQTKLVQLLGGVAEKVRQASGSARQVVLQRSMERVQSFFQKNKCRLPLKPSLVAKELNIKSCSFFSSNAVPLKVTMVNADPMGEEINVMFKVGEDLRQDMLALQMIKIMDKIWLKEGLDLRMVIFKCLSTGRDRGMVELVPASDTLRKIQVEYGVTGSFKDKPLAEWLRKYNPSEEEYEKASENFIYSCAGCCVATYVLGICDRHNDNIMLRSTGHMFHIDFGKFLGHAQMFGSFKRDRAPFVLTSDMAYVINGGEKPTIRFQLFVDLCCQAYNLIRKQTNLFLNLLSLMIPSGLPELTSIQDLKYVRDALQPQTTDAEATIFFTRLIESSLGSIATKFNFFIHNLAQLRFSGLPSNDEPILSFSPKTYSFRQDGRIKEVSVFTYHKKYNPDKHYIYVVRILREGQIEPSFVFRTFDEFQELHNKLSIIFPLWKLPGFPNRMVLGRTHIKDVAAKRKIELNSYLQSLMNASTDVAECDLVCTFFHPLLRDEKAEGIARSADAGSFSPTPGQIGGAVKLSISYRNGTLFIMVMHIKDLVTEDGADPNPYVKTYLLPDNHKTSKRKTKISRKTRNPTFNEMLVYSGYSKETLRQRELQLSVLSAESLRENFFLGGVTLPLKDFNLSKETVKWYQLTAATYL
Procedure: as §1, §2, §3, §4, §5

[5] = target: PI3K-C2β (Homo sapiens, UniProt O00750); experiment: SelectScreen Profiling IC50; format: biochemical; settings: ATP 10 μM
Procedure: as §1, §2, §3, §4, §5

[6] = target: PI3K-C2γ (Homo sapiens, UniProt O75747); experiment: SelectScreen Profiling IC50; format: biochemical
Procedure: as §1, §2, §3, §4, §5

[7] = target: Vps34 (Homo sapiens, UniProt Q8NEB9); experiment: SelectScreen Profiling IC50; format: biochemical
Procedure: as §1, §2, §3, §4, §5

[8] = target: mTOR (Homo sapiens, UniProt P42345); experiment: SelectScreen Profiling IC50; format: biochemical
Procedure: as §1, §2, §3, §4, §5

[9] = target: p110β (Homo sapiens, UniProt P42338); experiment: SelectScreen Profiling IC50; format: biochemical
Procedure: as §1, §2, §3, §4, §5

[10] = target: p110γ (Homo sapiens, UniProt P48736); experiment: SelectScreen Profiling IC50; format: biochemical
Procedure: as §1, §2, §3, §4, §5

[11] = target: p110δ (Homo sapiens, UniProt O00329); experiment: SelectScreen Profiling IC50; format: biochemical
Procedure: as §1, §2, §3, §4, §5

[12] = system: Huh7 subcutaneous xenografts; experiment: subcutaneous Huh7 xenograft with intratumoral doxorubicin-eluting beads; format: in vivo, CD-1 nude mice
Procedure: DC M1 beads were loaded with doxorubicin at 25 mg/mL as described in Supplemental Methods. Huh7 cells (5 × 10^6 cells per mouse in 50 μL, 50% vol/vol Matrigel) were implanted s.c. into the right flank of female CD-1 nude mice to generate subcutaneous Huh7 xenografts (180–220 mm^3). Mice were then treated with 5 μL doxorubicin-loaded or unloaded beads suspended in 30 μL saline administered via an intratumoral injection along the length of each tumor using a 29G needle. One hour after bead implantation, twice-daily dosing with 30 mg/kg NU5455 or vehicle control (1% vol/vol acetic acid in water) was commenced via oral gavage (9-hour dosing interval) and continued for up to 20 days. Tumor volumes were calculated daily using bilateral caliper measurements as described in Supplemental Methods, and body weight measurements taken daily throughout treatment. […]
γH2AX immunohistochemistry in HCC tumor xenografts
FFPE tumor sections (4 µm) were dewaxed in xylene and hydrated in descending concentrations of ethanol. Endogenous tissue peroxidase activity was quenched using 3% v/v hydrogen peroxide. Antigen retrieval was performed using 1 mM EDTA, pH 8.0 in a microwave (Kenwood). Tissue sections were blocked for avidin and biotin using the […]
Avidin/Biotin Blocking Kit (Vector Laboratories), and washed in TBST be tween all subsequent steps. Slides were blocked in 20% v/v pig serum in DI water, and sections incubated with an antibody against γH2AX ( 20E3, Cell Signaling Technology #9718, 1 in 200 in TBST) in a humidified container at 4°C overnight.
Sections were th en incubated with polyclonal swine anti -rabbit IgG, biotinylated (Dako #E0353, 1 in 200 in TBST), followed by VectaStain RTU Elite ABC reagent (Vector Laboratories). Slides were stained using DAB Peroxidase Substrate Kit (Vector Laboratories) prepared according to the manufacturer’s instructions. Slides were washed in DI water, then counterstained in filtered haematoxylin s olution. Background staining was minimized by exposure to acid alcohol solution (1% v/v hydrochloric acid in 70% v/v ethanol, Fisher), and staining blued by incubation in Scott’s tap water. Stained slides were then dehydrated in ascending concentrations of ethanol, followed by clearing in xylene. Glass coverslips (Dako) were mounted onto slides using DPX mounting medium. pDNA-PKcs Ser2056 immunohistochemistry in HCC tumor xenografts
Tumor sections were dewaxed in xylene, hydrated, and endogenous peroxidase activity quenched as detailed above. Antigen retrieval was performed in 1X citrate buffer (10 mM citric acid (Acros), pH 6.0 + 0.5% v/v Tween 20), using a decloaker (A. Menarini Diagnostics).
Tissue sections were blocked in 1% w/v BSA and 1% v/v normal go at serum in PBS (1 hour, RT). Sections were then incubated at 4°C overnight in a humidified container with an antibody against pDNA -PKcs Ser2056 (Abcam #18192, 1:1000 in 1% w/v BSA and 1% v/v […]
Sections were washed with TBST before incuba tion with EnVision+ anti -rabbit Polymer-HRP solution (Dako #K4002). Slides were washed in TBST , and antibody conjugates visualized by incubation with ImmPACT DAB peroxidase substrate working solution. […]
IHC slides were digitized via conversion using the Aperio ScanScope CS Brightfield scanner (Leica Biosystems) at x20 zoom. Percentage hepatocyte nuclear positivity for pDNA -PKcs Ser2056 and γH2AX was determined using a nuclear algorithm generated with the Aperio ImageScope software v11.2.0.780 (Leica Biosystems). […]

[13] = cell-free, ATP Km app, read-out: NU5455 IC50
[14] = cell-free, ATP Km app, mean ± SEM, read-out: NU5455 IC50
[15] = cell-free, ATP Km app, p85α subunit, mean ± SEM, read-out: NU5455 IC50

CN(C(=O)CN1CCOCC1)c1ccc2sc3c(-c4cccc5c(=O)cc(N6CC7CCC(C6)O7)oc45)cccc3c2c1 [NU5455]
IC50 [1, 13]: > 10 µM
Fold selectivity for DNA-PK ([1]; versus ATM): > 1220 fold and > 1200 fold
IC50 [2, 13]: > 10 µM
Fold selectivity for DNA-PK ([2]; versus ATR): > 1220 fold and > 1200 fold
IC50 [3]: 0.0082 ± 0.002 µM
IC50 [4, 13]: > 10 µM
Fold selectivity for DNA-PK ([4]; versus PI3K-C2α): > 1220 fold
IC50 ([5]; cell-free, mean ± SEM, read-out: NU5455 IC50): 1.96 ± 0.424 µM
Fold selectivity for DNA-PK ([5]; versus PI3K-C2β): 239 fold
IC50 [6, 13]: > 10 µM
Fold selectivity for DNA-PK ([6]; versus PI3K-C2γ): > 1220 fold
IC50 [7, 14]: 0.071 ± 0.019 µM
Fold selectivity for DNA-PK ([7]; versus Vps34): 8.7 fold
IC50 [8, 14]: 4.06 ± 1.12 µM
Fold selectivity for DNA-PK ([8]; versus mTOR): 495 fold
IC50 [9, 15]: 9.32 ± 1.25 µM
Fold selectivity for DNA-PK ([9]; versus p110β): 1137 fold
IC50 [10, 13]: > 10 µM
Fold selectivity for DNA-PK ([10]; versus p110γ): > 1220 fold
IC50 [11, 15]: 0.276 ± 0.022 µM
Fold selectivity for DNA-PK ([11]; versus p110δ (PI3Kδ)): 33.7 fold
DNA-PKcs phosphorylation (Ser2056) in tumors ([12]; 72 hours of treatment, doxorubicin-loaded beads, immunohistochemistry): reduced by NU5455 treatment
DNA damage (γH2AX) in area surrounding doxorubicin-eluting beads ([12]; 72 hours, immunohistochemistry): significantly augmented
mean RTV4 value, monotherapy ([12]; NU5455 30 mg/kg b.i.d. with unloaded beads, or doxorubicin beads with vehicle): 10.6 days
body weight or clinical condition versus vehicle alone ([12]; NU5455 30 mg/kg oral b.i.d. + doxorubicin-eluting beads): no additional impact
mean RTV4 value, combination ([12]; NU5455 30 mg/kg oral b.i.d. + intratumoral doxorubicin-eluting beads): 17.8 days

— article PMC6934184, “Selective DNA-PKcs inhibition extends the therapeutic index of localized radiotherapy and chemotherapy” (The Journal of Clinical Investigation, 2019)
